Data: patent US6573291B2, “Method and use” (Biovitrum AB, priority 2000, dated 2003)
pKi: −log10 of the molar value.

Experiments:
RIN-m5F cells = assay: Inhibition of GLP-1 stimulated insulin release in RIN-m5F cells; assay type: cell-based; conditions: for GLP-1 induced insulin release: 3 nM GLP-1, 1 h, compounds 0.1 μM to 30 μM, FIG. 3
Protocol: The RIN-m5F cells were grown as in Example 2. The cells were plated in 96-well plates (10,000 per well) at a density of 2×10^5 cells per ml and grown for 3 days. The culture medium was changed the day before the experiment. On the day of the experiment, the medium was removed and replaced with serum-free RPMI 1640 containing 0.1% bovine serum albumin (serum-free medium). Dilutions of compounds prepared in serum-free medium from 10 mM DMSO stock solutions to give final concentrations from 0.1 μM to 30 μM were added. The cells were stimulated with 3 nM GLP-1 in a total volume of 200 μl for 1 h and the concentration of insulin in the medium was measured in an ELISA (Mercodia AB). The insulin release in the presence of medium was 6.3±1.4 ng/ml and 10.5±1.4 ng/ml in the presence of 3 nM GLP-1.

human GLP-1 receptor = target: T1, human GLP-1 receptor (Homo sapiens, UniProt P43220); assay: Inhibition of 125I-GLP-1 binding to human recombinant GLP-1 receptors (SPA); conditions: 125I-GLP-1, membranes of COS7 cells transfected with human GLP-1 receptor, Cheng-Prushoff equation; read-out: K1 value, inhibition of the binding of GLP-1 to its receptor
T1 construct: expressed in transfected cells; host or cells: COS7 cells (COShGLPr, clone #16)
Protocol: Wheatgerm agglutinin scintillation proximity assay (SPA) beads (500 mg) from Amersham (RPNQ 0001) were diluted into 50 ml of assay buffer (Assay buffer consisted of 150 mM NaCl, 10 mM MgCl2, 1 mM EDTA, and 20 mM HEPES, pH 7.4). The SPA beads were combined (1:1 v/v) with a crude membrane preparation from COS7 cells transfected with the human GLP-1 receptor at a concentration of 30 μg/ml/well. These cells (COShGLPr, clone #16) were grown in Dulbecco's Modified Eagle Medium with high glucose (DMEM Gibco, #11965-092) supplemented with 10% heat-inactivated fetal bovine serum (Gibco, #1600-044), 2 mM L-Glutamine (Gibco #25030-081), and 10 μg/ml Gentamicin (Gibco #15710-064) with 705 μg/ml Geneticin (G418 sulfate, Gibco) (DMEM complete). The mixture was incubated for two hours at room temperature with constant rotation. The free membranes were washed away by centrifuging the mixture for 5 minutes at 800 rpm in a table-top GLCl (Sorvall) centrifuge. The supernatant was discarded and the pellet was resuspended in 50 ml assay buffer+0.1% bovine serum albumin. […] The plates were counted approximately 10 h later in a Microbeta Trilux liquid scintillation counter (WALLAC). […] Binding constants (Ki) were calculated with the Cheng-Prushoff equation (Cheng Y C and Prushoff W H, Biochem Pharmacol 22:3099, 1973). […]

[1] = target: T2, endogenous GLP-1 receptor coupled to adenylate cyclase (Rattus norvegicus, UniProt P32301); assay: Inhibition of GLP-1 induced cAMP signaling in RIN-m5F insulinoma cells; assay type: cell-based; conditions: 3 nM GLP-1, 15 minutes, FIG. 2
T2 construct: host or cells: RIN-m5F insulinoma cells
T2 sequence (P32301 22-463): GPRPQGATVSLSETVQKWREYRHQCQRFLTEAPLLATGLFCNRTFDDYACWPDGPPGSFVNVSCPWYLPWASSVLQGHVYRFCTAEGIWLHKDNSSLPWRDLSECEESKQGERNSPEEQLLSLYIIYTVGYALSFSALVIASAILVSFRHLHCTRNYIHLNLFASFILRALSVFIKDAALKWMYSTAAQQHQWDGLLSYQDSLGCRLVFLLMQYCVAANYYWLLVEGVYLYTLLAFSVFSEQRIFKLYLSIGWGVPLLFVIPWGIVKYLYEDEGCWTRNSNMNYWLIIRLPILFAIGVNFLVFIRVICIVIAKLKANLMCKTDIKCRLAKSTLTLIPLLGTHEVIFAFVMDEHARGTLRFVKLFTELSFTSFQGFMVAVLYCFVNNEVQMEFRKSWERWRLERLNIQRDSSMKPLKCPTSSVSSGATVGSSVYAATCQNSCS
Protocol: The cells were obtained from the American Type Culture Collection (ATCC, #203641 F13132) and grown in RPMI 1640 (GIBCO, #21870-076) supplemented with 2 mM L-glutamine, 10% heat inactivated fetal bovine serum, and 10 μg/ml Gentamicin.
RIN-m5F cells were plated in 12 well plates at a density of 2.0×10^5 cells per ml and grown for 4 days in complete RPMI 1640 with 10% fetal bovine serum; the medium was changed the day before experiment. The cells were from 70-90% confluent at the time of the experiment. On the day of the experiment, the incubation medium was removed and the cells were washed with fresh serum-free RPMI 1640 containing 0.1% bovine serum albumin (serum-free medium). One ml DMEM complete with 1 mM 3-isobutyl-1-methylxanthine (Sigma) was added and the plates were placed at 37° C. and 5.0% CO2 for 15 minutes before initiation of the experiment. Fresh compounds were acquired and dissolved as 10 mM solutions in DMSO. A further 1:10 dilution was prepared in DMEM and after the incubation period, the compounds were added to the wells at 30 μM final concentration. The final concentration of DMSO was always 0.3%. The wells were treated with or without GLP-1 (3 nM). The plates were then incubated at 37° C. and 5.0% CO2 for 15 minutes. […] The solution was mixed well and quantitatively transferred to microcentrifuge tubes with 1 wash of 0.5 ml of the 50 mM NaOH solution. […]

T1 sequence (P43220 24-463): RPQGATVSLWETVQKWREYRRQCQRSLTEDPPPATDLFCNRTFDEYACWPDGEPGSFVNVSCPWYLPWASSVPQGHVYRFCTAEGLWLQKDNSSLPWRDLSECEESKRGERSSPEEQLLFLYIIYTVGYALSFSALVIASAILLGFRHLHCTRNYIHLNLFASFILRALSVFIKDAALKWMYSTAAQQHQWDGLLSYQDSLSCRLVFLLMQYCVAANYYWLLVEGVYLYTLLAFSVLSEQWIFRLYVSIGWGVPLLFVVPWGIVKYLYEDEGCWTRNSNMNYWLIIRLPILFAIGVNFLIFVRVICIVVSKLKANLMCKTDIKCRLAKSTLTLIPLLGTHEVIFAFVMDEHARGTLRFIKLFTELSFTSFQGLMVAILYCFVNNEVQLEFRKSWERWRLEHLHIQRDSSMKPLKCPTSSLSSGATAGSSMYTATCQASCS

Row | Molecule | GLP-1 induced insulin release (RIN-m5F cells) | insulin release (RIN-m5F cells; in the presence of 3 nM GLP-1 alone, 1 h (medium 6.3±1.4 ng/ml)) [ng/mL] | pKi (human GLP-1 receptor) | GLP-1 stimulated cAMP production [1]
1 | Cc1nn(C)c(/C=C/Nc2ccc(OC(F)(F)F)cc2)c1[N+](=O)[O-] [Compound C, 4-trifluoromethoxy-1-{[(E)-2-(1,3-dimethyl-4-nitro-1H-pyrazol-5-yl)ethenyl]amino}benzene] | substantial reduction of the GLP-1 induced insulin release |  |  | 
2 | Glucagon-like peptide 1(7-36)amide [GLP-1, reference compound] |  | 10.5 ± 1.4 |  | 
3 | Cc1nn(C)c(/C=C/Nc2cc(Cl)ccc2O)c1[N+](=O)[O-] [Compound A, 4-chloro-2-{[(E)-2-(1,3-dimethyl-4-nitro-1H-pyrazol-5-yl)ethenyl]amino}phenol] | substantial reduction of the GLP-1 induced insulin release |  | ~6.00 | concentration dependently decreased GLP-1 stimulated cAMP production to a level close to that obtained in the absence of GLP-1
4 | COc1ccc(N/C=C/c2c([N+](=O)[O-])c(C)nn2C)c(OC)c1 [Compound D, 2,4-dimethoxy-1-{[(E)-2-(1,3-dimethyl-4-nitro-1H-pyrazol-5-yl)ethenyl]amino}benzene] | substantial reduction of the GLP-1 induced insulin release |  |  | 
5 | Cc1nn(C)c(/C=C/Nc2ccc(F)cc2)c1[N+](=O)[O-] [Compound B, 4-fluoro-1-{[(E)-2-(1,3-dimethyl-4-nitro-1H-pyrazol-5-yl)ethenyl]amino}benzene] | substantial reduction of the GLP-1 induced insulin release |  |  | 
